According to the NIST ThermoML archive (doi:10.1016/j.jct.2013.05.029):

Assays:
[1] = refractive index (other wavelength) (dimensionless); xn = mol fraction of the nth substance listed; settings: 101 kPa, Liquid, Wavelength=633 nm, Standard Abbe refractometry
[2] = 101.33 kPa, Liquid, Vibrating tube method
[3] = refractive index (other wavelength) (dimensionless); settings: 101 kPa, Liquid, Wavelength=633 nm, Standard Abbe refractometry
[4] = relative permittivity at various frequencies (dimensionless); settings: 101 kPa, Liquid, Frequency=0.151 MHz, Parallel plate capacitor

OCCC(F)(F)C(F)(F)C(F)(F)C(F)(F)C(F)(F)C(F)(F)F [1H,1H,2H,2H-perfluorooctanol] + CCCCn1cc[n+](C)c1.F[B-](F)(F)F
[1]
Settings | refractive index
568.17 K, x2 = 0.483 | 1.3609
568.17 K, x2 = 0.975 | 1.417
569.9 K, x2 = 0.514 | 1.3635
569.9 K, x2 = 0.972 | 1.4162
570.62 K, x2 = 0.528 | 1.3648
570.62 K, x2 = 0.969 | 1.4157
571.13 K, x2 = 0.539 | 1.3658
571.13 K, x2 = 0.967 | 1.4153
571.88 K, x2 = 0.555 | 1.3673
571.88 K, x2 = 0.963 | 1.4146
572.59 K, x2 = 0.569 | 1.3686
572.59 K, x2 = 0.96 | 1.414
573.11 K, x2 = 0.585 | 1.3701
573.11 K, x2 = 0.958 | 1.4137
573.58 K, x2 = 0.595 | 1.3712
573.58 K, x2 = 0.953 | 1.4128
574.07 K, x2 = 0.61 | 1.3726
574.07 K, x2 = 0.946 | 1.4119
574.57 K, x2 = 0.62 | 1.3736
574.57 K, x2 = 0.944 | 1.4115
575.11 K, x2 = 0.641 | 1.3757
575.11 K, x2 = 0.935 | 1.4102
575.59 K, x2 = 0.663 | 1.378
575.59 K, x2 = 0.93 | 1.4096
576.09 K, x2 = 0.684 | 1.3803
576.09 K, x2 = 0.917 | 1.4078
576.69 K, x2 = 0.729 | 1.3852
576.69 K, x2 = 0.892 | 1.4045

OCCC(F)(F)C(F)(F)C(F)(F)C(F)(F)C(F)(F)C(F)(F)F [1H,1H,2H,2H-perfluorooctanol]
Settings | mass density [kg/m3] | refractive index | relative permittivity
[2], 291.15 K | 1692.2 | – | –
[2], 293.15 K | 1688.7 | – | –
[2], 295.14 K | 1685.2 | – | –
[2], 298.15 K | 1679.9 | – | –
[2], 300.14 K | 1676.4 | – | –
[2], 303.15 K | 1671 | – | –
[2], 305.14 K | 1667.5 | – | –
[2], 308.15 K | 1662.1 | – | –
[2], 310.14 K | 1658.5 | – | –
[3], 292.89 K | – | 1.3152 | –
[3], 297.98 K | – | 1.3134 | –
[3], 300.94 K | – | 1.3125 | –
[3], 304.98 K | – | 1.3112 | –
[3], 307.95 K | – | 1.3101 | –
[3], 308.13 K | – | 1.31 | –
[4], 293.15 K | – | – | 9.67
[4], 298.15 K | – | – | 9.21
[4], 303.15 K | – | – | 8.83
[4], 308.15 K | – | – | 8.46
[4], 313.15 K | – | – | 8.12

CCCCn1cc[n+](C)c1.F[B-](F)(F)F [1-butyl-3-methylimidazolium tetrafluoroborate]
Settings | mass density [kg/m3] | refractive index
[2], 291.15 K | 1206.3 | –
[2], 293.15 K | 1204.9 | –
[2], 295.14 K | 1203.5 | –
[2], 298.15 K | 1201.3 | –
[2], 300.14 K | 1199.9 | –
[2], 303.15 K | 1197.7 | –
[2], 305.14 K | 1196.3 | –
[2], 308.15 K | 1194.1 | –
[2], 310.14 K | 1192.7 | –
[3], 292.99 K | – | 1.4207
[3], 298.14 K | – | 1.4194
[3], 300.94 K | – | 1.4187
[3], 303.06 K | – | 1.4182
[3], 307.96 K | – | 1.4169
